PMC5676566 (Nature chemical biology, 2017)

Molecular target: BG505 Env (pseudovirus) (Human immunodeficiency virus 1, UniProt Q2N0S5)
Experiment: pseudovirus neutralization, TZM-bl cells, luciferase
Type: cell-based
Conditions: 1% DMSO; separate panel assay printed too (Supplementary Table 1)

IC50: 1190 nM
Compound: COc1ccnc2[nH]cc(C(=O)C(=O)N3CCN(C(=O)c4ccccc4)C[C@H]3C)c12 [BMS-378806]
